# Assay results: paper PMC12692291, “Development and In Vitro Evaluation of [^64Cu]Cu-NOTA-TP-PSMA, a Novel Radiotheranostic Agent Against Prostate Cancer” (International Journal of Molecular Sciences, 2025)
# pEC50: −log10 of the molar value. Like-named read-outs stand apart in the source and are kept apart here.
# Legend:
# LNCaP cells [1] = type: cell-based
# Experimental: (§1) The cytotoxicity of compounds 1–3, ^natCu-NOTA-TP-PSMA, and cisplatin (platinum-based drug) were assessed with PrestoBlue, a resazurin-based method to assess mitochondrial function in LNCaP and HEK-293 cells at 24, 48, and 72 h. Effective concentration (EC50) values summarized in Table 3 were calculated from the dose–response curves of each compound (Figure S7).
# (§2) Cytotoxicity was evaluated using a resazurin-based assay (PrestoBlue) in 96-well plates. LNCaP (15,000 cells/well) and HEK-293 (10,000 cells/well) were seeded and incubated for 72 h. Cells were then treated with serial dilutions of [^64Cu]Cu-NOTA-TP-PSMA and controls for 24, 48, or 72 h. After treatment, cells were rinsed with PBS and incubated with PrestoBlue reagent for 40 min. Fluorescence was measured at 570 nm (excitation) and 610 nm (emission). Background readings from blank wells were subtracted. Cell viability was calculated relative to untreated controls. IC50 values were determined using dose–response curves. Controls included [^64Cu]Cu-NOTA-TP, [^64Cu]Cu-NOTA-PSMA, ^natCu-NOTA-TP-PSMA, and cisplatin (0–500 µM in 0.9% saline). All assays were performed in triplicate and all data presented in Results are the average of three independent experiments. TP conjugates were dissolved in 1% DMSO and diluted in saline. Inhibitory concentration 50 (IC50) values were calculated to quantify the effectiveness of the compounds.
# HEK-293 cells [2] = experiment: PrestoBlue cytotoxicity assay in HEK-293 cells; type: cell-based, human; conditions: read-out: EC50 HEK293
# Experimental: as §1, §2
# LNCaP cells [3] = experiment: Cellular uptake and internalization in LNCaP cells; type: cell-based; conditions: LNCaP, 24 h, 37 °C, 1 nM
# Experimental: LNCaP cells (1 × 10^5 cells/well) were seeded into 24-well plates and incubated for 72 h. Cells were treated with 1nM [^64Cu]Cu-NOTA-TP-PSMA or control monomers ([^64Cu]Cu-NOTA-TP and [^64Cu]Cu-NOTA-PSMA), each containing 0.1 MBq of radioactivity in RPMI-1640 medium.
# Uptake and internalization were assessed at multiple time points (30 min to 24 h). At each timepoint, cells were washed with cold PBS, detached with trypsin, and counted using a hemocytometer. For internalization studies, surface-bound radioactivity was removed using 50 mM glycine-HCl buffer (pH 2.2) for 5 min, followed by additional PBS washes.
# To investigate the internalization mechanism, parallel experiments were conducted at 4 °C to evaluate passive versus active uptake. Receptor specificity was assessed via blocking assays using 1 µM ^natCu-NOTA-TP-PSMA (1000-fold excess) co-incubated with 1 nM radiolabeled tracer. Post-incubation, intracellular radioactivity was quantified using a HIDEX gamma counter. All results were normalized to 10^6 cells and expressed as percent counts per minute per million cells (%CPM/10^6 cells).
# LNCaP cells [4] = experiment: Efflux (retention) study in LNCaP cells; type: cell-based; conditions: Table S3 first part (LNCaP)
# Experimental: (§3) Efflux studies were conducted by incubating the cells with the compound for an initial period of 1 h, after which the incubation medium was replaced with fresh, compound-free medium. The retained intracellular radioactivity was then measured at various time points up to 24 h and expressed as the percentage of retention relative to the 0-h time point, defined as the time immediately after medium replacement.
# HEK-293 cells [5] = experiment: Efflux (retention) study in HEK-293 cells; type: cell-based, human; conditions: Table S3 second part (HEK-293)
# Experimental: as §3
# LNCaP cells [6] = experiment: Nuclear localization in LNCaP cells; type: cell-based
# Experimental: (§4) To assess nuclear localization, LNCaP and HEK-293 cells were incubated with 1 MBq of [^64Cu]Cu-NOTA-TP-PSMA 1 for 24, 48, and 72 h. Nuclear extraction was performed following a previously established protocol. Following incubation, cells were lysed and fractionated using cytoskeletal buffer to isolate nuclear components. Nuclear and cytoplasmic radioactivity were measured using a HIDEX automatic gamma counter. Data were used to evaluate time-dependent nuclear accumulation of the tracer.
# HEK-293 cells [7] = experiment: Nuclear localization in HEK-293 cells; type: cell-based, human
# Experimental: as §4
# [8] = Solubility in aqueous media; type: physicochemical
compound,measurement,setting,value
"N.N.[Cl][Pt][Cl] [Cisplatin, cisplatin, reference compound]",pEC50,LNCaP cells [1]; 24 h,4.09
same,pEC50,LNCaP cells [1]; 48 h,4.52
same,pEC50,LNCaP cells [1]; 72 h,4.64
same,pEC50,HEK-293 cells [2]; 24 h,4.51
same,pEC50,HEK-293 cells [2]; 48 h,4.39
same,pEC50,HEK-293 cells [2]; 72 h,4.56
"O=C(O)CC[C@H](NC(=O)N[C@@H](CCCCNC(=O)[C@@H](Cc1ccc2ccccc2c1)NC(=O)[C@H]1CC[C@H](CNC(=O)CNC(=O)COCCOCCNC(=O)CN2CCN(CC(=O)O)CCN(CC(=O)O)CC2)CC1)C(=O)O)C(=O)O [[^64Cu]Cu-NOTA-PSMA 3, metal not drawn]",Internalization,LNCaP cells [3],16.7 ± 1.6 %CPM/10^6 cells
same,Uptake,LNCaP cells [3],22.8 ± 1.2 %CPM/10^6 cells
same,Retained activity,LNCaP cells [4]; 0 h after medium replacement,100 ± 0 %CPM/106 cells
same,Retained activity,LNCaP cells [4]; 1 h,54.8 ± 10.0 %CPM/106 cells
same,Retained activity,LNCaP cells [4]; 2 h,49.6 ± 8.1 %CPM/106 cells
same,Retained activity,LNCaP cells [4]; 4 h,46.6 ± 8.1 %CPM/106 cells
same,Retained activity,LNCaP cells [4]; 24 h,39.2 ± 7.9 %CPM/106 cells
same,Retained activity,HEK-293 cells [5]; 0 h after medium replacement,100 ± 0 %CPM/106 cells
same,Retained activity,HEK-293 cells [5]; 1 h,59.4 ± 22.3 %CPM/106 cells
same,Retained activity,HEK-293 cells [5]; 2 h,45.1 ± 14.5 %CPM/106 cells
same,Retained activity,HEK-293 cells [5]; 4 h,38.4 ± 4.1 %CPM/106 cells
same,Retained activity,HEK-293 cells [5]; 24 h,22.0 ± 1.5 %CPM/106 cells
same,nuclear uptake fold difference LNCaP vs HEK-293,LNCaP cells [6]; 24 h,5.8 fold
same,nuclear uptake in LNCaP cells,LNCaP cells [6]; 48 h,0.30 ± 0.13%
same,nuclear uptake fold difference LNCaP vs HEK-293,LNCaP cells [6]; 72 h,1.5 fold
same,nuclear uptake in LNCaP cells,LNCaP cells [6]; 72 h,0.35 ± 0.07%
same,Nuclear uptake LNCaP,"LNCaP cells [6]; Table S4, 24 h",0.44 ± 0.25 %ID/10⁶ cells
same,Nuclear uptake LNCaP,"LNCaP cells [6]; Table S4, 48 h",0.77 ± 1.02 %ID/10⁶ cells
same,Nuclear uptake LNCaP,"LNCaP cells [6]; Table S4, 72 h",0.35 ± 0.07 %ID/10⁶ cells
same,nuclear uptake in HEK-293 cells,HEK-293 cells [7]; 48 h,0.13 ± 0.05%
same,nuclear uptake in HEK-293 cells,HEK-293 cells [7]; 72 h,0.23 ± 0.04%
same,Nuclear uptake HEK-293,"HEK-293 cells [7]; Table S4, 24 h",0.07 ± 0.05 %ID/10⁶ cells
same,Nuclear uptake HEK-293,"HEK-293 cells [7]; Table S4, 48 h",0.13 ± 0.05 %ID/10⁶ cells
same,Nuclear uptake HEK-293,"HEK-293 cells [7]; Table S4, 72 h",0.23 ± 0.04 %ID/10⁶ cells
same,fold less cytotoxic than compound 1,LNCaP cells [1],5–16 fold
"O=C(O)CC[C@H](NC(=O)N[C@@H](CCCCNC(=O)[C@@H](Cc1ccc2ccccc2c1)NC(=O)[C@H]1CC[C@H](CNC(=O)CNC(=O)COCCOCCNC(=O)CN2CCN(CC(=O)O)CCN(CC(=O)O)CC2)CC1)C(=O)O)C(=O)O [^natCu-NOTA-PSMA, metal not drawn]",solubility,[8],readily soluble in aqueous media
O=C(O)CC[C@H](NC(=O)N[C@@H](CCCCNC(=O)[C@@H](Cc1ccc2ccccc2c1)NC(=O)C1CCC(CNC(=O)C(CCCCNC(=O)c2cc3[n+]4c(c2)-c2cccc[n+]2[Pt-2]4([Cl])[n+]2ccccc2-3)NC(=O)COCCOCCNC(=O)CN2CCN3CCN(CC2)CC(=O)[O][Cu][O]C(=O)C3)CC1)C(=O)O)C(=O)O (stereo partly drawn) [^natCu-NOTA-TP-PSMA],solubility,[8],reduced solubility
